These results are taken from PMC11551755, “Structure-based discovery of first inhibitors targeting the helicase activity of human PIF1” (Nucleic Acids Research, 2024).

Molecules are shown by their SMILES. Where two headings read alike, the source gives them in different places.

For the experiment, the target named is T1, hPIF1HD (Homo sapiens, UniProt Q9H611).
T1 construct: the hPIF1HD construct starts at residue Gln 206 and ends at Leu 620; hexa-histidine tag (N, cleaved yes); made in house; host or cells: ArcticExpress BL21(DE3) E. coli (Agilent Technologies)
T1 sequence (Q9H611 206-620): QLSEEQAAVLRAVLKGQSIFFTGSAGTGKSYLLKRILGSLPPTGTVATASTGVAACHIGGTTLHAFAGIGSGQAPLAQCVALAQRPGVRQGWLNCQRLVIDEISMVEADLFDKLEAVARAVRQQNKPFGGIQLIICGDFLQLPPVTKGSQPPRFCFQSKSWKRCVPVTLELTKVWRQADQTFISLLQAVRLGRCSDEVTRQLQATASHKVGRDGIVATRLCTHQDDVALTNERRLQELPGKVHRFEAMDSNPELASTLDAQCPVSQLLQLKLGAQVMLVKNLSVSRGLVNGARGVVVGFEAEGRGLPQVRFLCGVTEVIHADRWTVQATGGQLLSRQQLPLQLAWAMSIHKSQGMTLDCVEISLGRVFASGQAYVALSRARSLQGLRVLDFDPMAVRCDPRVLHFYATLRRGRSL
As to the kind of experiment: ssDNA d(T)55 binding assay (EMSA), wild-type hPIF1HD. The note with it: 5 mM AMP-PNP, read-out: IC50 for inhibition of hPIF1HD ssDNA binding, WT. On the procedure:
DNA binding of hPIF1HD was assayed using a ^32P-5′ end-labelled oligo d(T)55 substrate (0.25 nM), under the same buffer conditions described for helicase assays, but with AMP-PNP instead of ATP. Reaction products were resolved on 5% poly-acrylamide gels (29:1 acrylamide:bis-acrylamide) using 0.25× TBE running buffer ([19],[28]). Gels were processed and reaction products quantified by phosphorimaging and IC50 values determined as described above.
In the hPIF1HD/AMP-PNP/1 structure, the compound 1 binding site is largely between domains 2A and 2B and is absent in the modelled hPIF1HD-ssDNA complex (Figure 2), due to the large relative movement of domain 2B required for ssDNA binding, with or without bound nucleotide ([19],[34],[35],[47]). […] To test this, we assayed binding to a radiolabelled oligo d(T)55 substrate under helicase reaction conditions, with AMP-PNP instead of ATP, in the presence of the same SMIs selected for helicase IC50 analysis (Table 1). hPIF1HD was used rather than FLhPIF1 to eliminate the non-specific DNA binding activity of the N-terminal domain ([27],[29]), and complexes were resolved by gel electrophoresis (electrophoretic mobility shift assay, EMSA). […] With an increasing concentration of compound 1C (or other analogues of 1) or a derivative, progressive inhibition of ssDNA binding was observed, allowing determination of IC50 values for most compounds tested. It was not possible to obtain data for compounds 3, 7, 8 and 9 due to retention of substrate in the gel wells, possibly due to low solubility of the compounds (Supplementary Figure S10).
Figure 4. Inhibition of hPIF1HD ssDNA binding by compound 1 and derivatives. Binding reactions were assembled under helicase reaction conditions but with 0.25 nM radiolabelled oligo d(T)55, 2 nM hPIF1HD, 5 mM AMP-PNP and 0.0078–2 mM SMI. Products were resolved by EMSA for quantification and IC50 determination (n = 3 repeats). Bound ssDNA was calculated as the sum of the major and minor species, interpreted as one or two bound hPIF1HD molecules respectively. See also Supplementary Figure S10. IC50 values are given along with those determined for hPIF1HD variants V258A and V258L (see Supplementary Figure S12). TEXT PRINTED IN THE PICTURE: 1C: IC50 (μM): N.D. | 1E: IC50 (μM): N.D. | 2: IC50 (μM): WT: 224 ± 86; IC50 (μM): V258A: 103 ± 31; IC50 (μM): V258L: 304 ± 88 | 4: IC50 (μM): N.D. | 5: IC50 (μM): WT: 198 ± 54; IC50 (μM): V258A: 79.2 ± 27; IC50 (μM): V258L: 414 ± 45 | 6: IC50 (μM): WT: 722 ± 194; IC50 (μM): V258A: 295 ± 116; IC50 (μM): V258L: 1010 ± 282 | 10: IC50 (μM): WT: 224 ± 59; IC50 (μM): V258A: 152 ± 42; IC50 (μM): V258L: 378 ± 99 | 11: IC50 (μM): WT: 284 ± 110; IC50 (μM): V258A: 151 ± 51; IC50 (μM): V258L: 551 ± 215
(In general: Mobility shift assays separate free from complexed probe on a gel.)

Where [1] appears, read: 0.25 nM d(T)55, 2 nM hPIF1HD, 0.0078–2 mM SMI, n = 3.

In general, IC50 refers to the point on the concentration scale where inhibition reaches its midpoint. With `CC(=O)c1ccc(-c2csc(N)n2)cc1` [Compound 2], under “as printed in Supplementary Figure 12 legend, 2 nM hPIF1HD”, the IC50 was 224 ± 86 µM.
Turning to `N#Cc1ccc(-c2csc(N)n2)cc1` [Compound 5], the concentration for half-maximal inhibition (IC50) under setting [1] is 198 ± 54 µM.
For the compound `Nc1nc(-c2ccc(C(=O)c3ccccc3)cc2)cs1` [Compound 6], the IC50 under setting [1] turned out to be 722 ± 194 µM.
As for `CC(=O)Nc1ccc(-c2csc(N)n2)cc1-c1ccc(C)cc1` [Compound 10], the half-inhibitory concentration (IC50) under setting [1] came out at 224 ± 59 µM.
Take `CC(=O)Nc1ccc(-c2csc(N)n2)cc1C1=CCNCC1` [Compound 11]: the 50% inhibitory concentration (IC50) under setting [1] is 284 ± 110 µM.
